Reference: ChEMBL document CHEMBL1121517, “Estrogen receptor based imaging agents. 1. Synthesis and receptor binding affinity of some aromatic and D-ring halogenated estrogens” (J Med Chem, 1980)

These compounds were tested against Estrogen receptor (Ovis aries) (UniProt P49885+Q9TU15).
For CCC(c1cc(I)c(O)c(I)c1)C(CC)c1cc(I)c(O)c(I)c1 (stereo not drawn), the RAC was 0.002. Compound C[C@]12CC[C@@H]3c4cc(F)c(O)cc4CC[C@H]3[C@@H]1CC[C@@H]2O has an RAC of 86. COc1ccc2c(c1)CC[C@@H]1[C@@H]2CC[C@]2(C)C(=O)[C@H](Br)C[C@@H]12 gave an RAC of 3.5. Compound CCC(c1ccc(O)cc1)C(CC)c1ccc(O)c(F)c1 (stereo not drawn) has an RAC of 205. With COc1ccc2c(c1)CC[C@@H]1[C@@H]2CC[C@]2(C)C(=O)CC[C@@H]12 the RAC was 12. For CC[C@H](c1ccc(O)cc1)[C@@H](CC)c1ccc(O)cc1, the RAC was 300. In the case of CCC(c1ccc(O)c(F)c1)C(CC)c1ccc(O)c(F)c1 (stereo not drawn), the RAC is reported as 64. With CCC(c1cc(Br)c(O)c(Br)c1)C(CC)c1cc(Br)c(O)c(Br)c1 (stereo not drawn) the RAC was under 0.17. For CCC(c1ccc(O)cc1)C(CC)c1ccc(O)c(Br)c1 (stereo not drawn), the RAC was 16. With C[C@]12CC[C@@H]3c4ccc(O)cc4CC[C@H]3[C@@H]1C[C@@H](I)[C@@H]2O the RAC was 100. C[C@]12CC[C@@H]3c4ccc(O)cc4CC[C@H]3[C@@H]1C[C@@H](Br)[C@@H]2O showed an RAC of 127. With COc1ccc2c(c1)CC[C@@H]1[C@@H]2CC[C@]2(C)C(=O)[C@H](Cl)C[C@@H]12 the RAC was 0.48. In the case of CCC(c1ccc(O)cc1)C(CC)c1ccc(O)c(I)c1 (stereo not drawn), the RAC is reported as 14. Compound COc1ccc2c(c1)CC[C@@H]1[C@@H]2CC[C@]2(C)C(=O)[C@@H](Br)C[C@@H]12 has an RAC of 0.14. Work on C[C@]12CC[C@@H]3c4ccc(O)c(Br)c4CC[C@H]3[C@@H]1CC[C@@H]2O yielded an RAC of 10. With C[C@]12CC[C@@H]3c4cc(I)c(O)cc4CC[C@H]3[C@@H]1CC[C@@H]2O the RAC was under 0.1. With C[C@]12CC[C@@H]3c4ccc(O)cc4CC[C@H]3[C@@H]1C[C@@H](Cl)[C@H]2O the RAC was 9.2. C[C@]12CC[C@@H]3c4ccc(O)cc4CC[C@H]3[C@@H]1C[C@@H](Cl)[C@@H]2O was tested, and the RAC was 100. CCC(c1ccc(O)c(I)c1)C(CC)c1ccc(O)c(I)c1 (stereo not drawn) gave an RAC of 3.2. For CCC(c1ccc(O)cc1)C(CC)c1cc(I)c(O)c(I)c1 (stereo not drawn), the RAC was 1.9. C[C@]12CC[C@@H]3c4ccc(O)cc4CC[C@H]3[C@@H]1C[C@@H](Br)[C@H]2O showed an RAC of 4.8. With C[C@]12CC[C@@H]3c4ccc(O)cc4CC[C@H]3[C@@H]1C[C@H](Br)[C@@H]2O the RAC was 4.7. In the case of C[C@]12CC[C@@H]3c4ccc(O)c(F)c4CC[C@H]3[C@@H]1CC[C@@H]2O, the RAC is reported as 128. Compound CCC(c1ccc(O)c(Br)c1)C(CC)c1ccc(O)c(Br)c1 (stereo not drawn) has an RAC of 2.6. C[C@]12CC[C@@H]3c4cc(Br)c(O)cc4CC[C@H]3[C@@H]1CC[C@@H]2O showed an RAC of 1.2. CCC(c1ccc(O)c(Br)c1)C(CC)c1cc(Br)c(O)c(Br)c1 (stereo not drawn) gave an RAC of 0.72. In the case of CCC(c1ccc(O)c(I)c1)C(CC)c1cc(I)c(O)c(I)c1 (stereo not drawn), the RAC is reported as 0.14. C[C@]12CC[C@@H]3c4ccc(O)cc4CC[C@H]3[C@@H]1C[C@H](I)[C@@H]2O showed an RAC of 57.
